System: firefly luciferase activity
Experiment: Dual-Glo firefly/renilla luciferase reporter assay in cells
Assay type: cell-based
Conditions: 24 h, read-out: Firefly Luciferase IC50 (μM)

Compound | IC50 [µM]
CCOC(=O)Cn1cc(-c2ccccc2Nc2cccc(C(F)(F)F)c2)nn1 [Compound 18, Ethyl 2-[4-[2-[3-(trifluoromethyl)anilino]phenyl]triazol-1-yl]acetate] | 1 to 5
OCCn1nnc(-c2cc(C(F)(F)F)ccc2Nc2ccc(C(F)(F)F)cc2)n1 [Compound 262, 2-(5-(5-(trifluoromethyl)-2-((4-(trifluoromethyl)phenyl)amino)phenyl)-2H-tetrazol-2-yl)ethanol] | 0.1 to 1
OCCn1nnc(-c2cccc(F)c2Nc2ccc(C(F)(F)F)cc2)n1 [Compound 188, 2-(5-(3-fluoro-2-((4-(trifluoromethyl)phenyl)amino)phenyl)-2H-tetrazol-2-yl)ethanol] | < 0.1
CC(O)Cn1nnc(-c2ccccc2Nc2ccc(C(F)(F)F)cc2)n1 (stereo not drawn) [Compound 105, 1-[5-[2-[4-(trifluoromethyl)anilino]phenyl]tetrazol-2-yl]propan-2-ol] | < 0.1
OCCn1nnc(-c2ccccc2Nc2ccc(F)cc2)n1 [Compound 8, 2-[5-[2-(4-fluoroanilino)phenyl]tetrazol-2-yl]ethanol] | 0.1 to 1
O=C(Cn1nnc(-c2ccccc2Nc2ccc(C(F)(F)F)cc2)n1)C1CC1 [Compound 121, 1-cyclopropyl-2-[5-[2-[4-(trifluoromethyl)anilino]phenyl]tetrazol-2-yl]ethanone] | 0.1 to 1
CCOC(=O)Cn1nnc(-c2ccccc2Nc2ccc(F)cc2)n1 [Compound 7, ethyl 2-[5-[2-(4-fluoroanilino)phenyl]tetrazol-2-yl]acetate] | 0.1 to 1
OCCn1nnc(-c2ccc(Cl)cc2Nc2ccc(C(F)(F)F)cc2)n1 [Compound 239, 2-(5-(4-chloro-2-((4-(trifluoromethyl)phenyl)amino)phenyl)-2H-tetrazol-2-yl)ethanol] | < 0.1
OCCn1nnc(-c2cccnc2Nc2ccc(OC(F)(F)F)cc2)n1 [Compound 75, 2-(5-(2-((4-(trifluoromethoxy)phenyl)amino)pyridin-3-yl)-2H-tetrazol-2-yl)ethanol] | 0.1 to 1

Same assay, conditions: 24 hrs compound treatment, starting from 3 uM, 1:3 dilution, 10 points; read-out: Firefly Luciferase IC50

Compound | IC50 [µM]
FCCCn1nnc(-c2ccccc2Nc2ccc(C(F)(F)F)cc2)n1 [Compound 126, 2-[2-(3-fluoropropyl)tetrazol-5-yl]-N-[4-(trifluoromethyl)phenyl]aniline] | 0.1 to 1
CO[C@@H](C)[C@@H](C)n1nnc(-c2ccccc2Nc2ccc(C(F)(F)F)cc2)n1 [Compound 212, 2-(2-((2R,3S)-3-methoxybutan-2-yl)-2H-tetrazol-5-yl)-N-(4-(trifluoromethyl)phenyl)aniline] | < 0.1
FC(F)(F)c1ccc(Nc2ccccc2-c2nnn(Cc3ccccn3)n2)cc1 [Compound 52, 2-[2-(2-pyridylmethyl)tetrazol-5-yl]-N-[4-(trifluoromethyl)phenyl]aniline] | 0.1 to 1
OCCn1nnc(-c2ccccc2Nc2ccc(Cl)c(Cl)c2)n1 [Compound 251, 2-(5-(2-((3,4-dichlorophenyl)amino)phenyl)-2H-tetrazol-2-yl)ethanol] | 0.1 to 1
O=C(O)Cn1cc(-c2ccccc2Nc2ccc(C(F)(F)F)cc2)cn1 [Compound 61, 2-(4-(2-((4-(trifluoromethyl)phenyl)amino)phenyl)-1H-pyrazol-1-yl)acetic Acid] | 0.1 to 1
OCCCn1nnc(-c2ccccc2Nc2ccc(C(F)(F)F)cc2)n1 [Compound 98, 3-(5-(2-((4-(trifluoromethyl)phenyl)amino)phenyl)-2H-tetrazol-2-yl)propan-1-01] | < 0.1
OC1(Cn2nnc(-c3ccccc3Nc3ccc(C(F)(F)F)cc3)n2)CCCCC1 [Compound 133, 1-[[5-[2-[4-(trifluoromethyl)anilino]phenyl]tetrazol-2-yl]methyl]cyclohexanol] | 0.1 to 1
CC(=O)N1CCC(O)(Cn2nnc(-c3ccccc3Nc3ccc(C(F)(F)F)cc3)n2)C1 (stereo not drawn) [Compound 154, 1-(3-hydroxy-3-((5-(2-((4-(trifluoromethyl)phenyl)amino)phenyl)-2H-tetrazol-2-yl)methyl)pyrrolidin-1-yl)ethanone] | 0.1 to 1
FC(F)(F)c1ccc(Nc2ccccc2-c2nnn(CC3CCC3)n2)cc1 [Compound 170, 2-(2-(Cyclobutylmethyl)-2H-tetrazol-5-yl)-N-(4-(trifluoromethyl)phenyl)aniline] | 0.1 to 1
OCCn1nnc(-c2cc(F)ccc2Nc2ccc(C(F)(F)F)cc2)n1 [Compound 175, 2-[5-[5-fluoro-2-[4-(trifluoromethyl)anilino]phenyl]tetrazol-2-yl]ethanol] | < 0.1
FC(F)(F)c1ccc(Nc2ccccc2-c2nnn(C3CNC3)n2)cc1 [Compound 221, 2-(2-(azetidin-3-yl)-2H-tetrazol-5-yl)-N-(4-(trifluoromethyl)phenyl)aniline] | 1 to 5
CNCCn1nnc(-c2ccccc2Nc2ccc(C(F)(F)F)cc2)n1 [Compound 219, 2-(2-(2-(methylamino)ethyl)-2H-tetrazol-5-yl)-N-(4-(trifluoromethyl)phenyl) Aniline] | 0.1 to 1
O[C@@H]1CCC[C@@H]1n1nnc(-c2ccccc2Nc2ccc(C(F)(F)F)cc2)n1 [Compound 200, (1R,2S)-2-(5-(2-((4-(trifluoromethyl)phenyl)amino)phenyl)-2H-tetrazol-2-yl)cyclopentan-1-ol] | 0.1 to 1
Cn1nc(-c2ccccc2Nc2ccc(C(F)(F)F)cc2)cc1CCO [Compound 196, 2-(1-methyl-3-(2-((4-(trifluoromethyl)phenyl)amino)phenyl)-1H-pyrazol-5-yl)ethan-1-ol] | 1 to 5
CCOC(=O)Cn1cc(-c2ccccc2Nc2ccc(C(F)(F)F)cc2)cn1 [Compound 60, ethyl 2-(4-(2-((4-(trifluoromethyl)phenyl)amino)phenyl)-1H-pyrazol-1-yl)acetate] | < 0.1
CCc1ccc(Nc2ccc(C(F)(F)F)cc2)c(-c2nnn(CCO)n2)c1 [Compound 256, 2-[5-[5-ethyl-2-[4-(trifluoromethyl)anilino]phenyl]tetrazol-2-yl]ethanol] | < 0.1
CCOC(=O)Cn1ncc(-c2ccccc2Nc2ccc(C(F)(F)F)cc2)c1C [Compound 77, ethyl 2-[5-methyl-4-[2-[4-(trifluoromethyl)anilino]phenyl]pyrazol-1-yl]acetate] | < 0.1

Compound | IC50 [µM]
OC1(Cn2nnc(-c3ccccc3Nc3ccc(C(F)(F)F)cc3)n2)CC1 [Compound 204, 1-((5-(2-((4-(trifluoromethyl)phenyl)amino)phenyl)-2H-tetrazol-2-yl)methyl) cyclopropan-1-ol] | < 0.1
FC(F)(F)c1ccc(Nc2ccccc2-c2nnn(C3COCOC3)n2)cc1 [Compound 263, 2-(2-(1,3-dioxan-5-yl)-2H-tetrazol-5-yl)-N-(4-(trifluoromethyl)phenyl)aniline] | < 0.1
CC(=O)NCCn1nnc(-c2ccccc2Nc2ccc(C(F)(F)F)cc2)n1 [Compound 92, N-[2-[5-[2-[4-(trifluoromethyl)anilino]phenyl]tetrazol-2-yl]ethyl]acetamide] | 0.1 to 1
OC1(Cn2nnc(-c3ccccc3Nc3ccc(C(F)(F)F)cc3)n2)CCCNC1 (stereo not drawn) [Compound 156, 3-((5-(2-((4-(trifluoromethyl)phenyl)amino)phenyl)-2H-tetrazol-2-yl)methyl) piperidin-3-ol] | 0.1 to 1
O=C(Cn1nnc(-c2ccccc2Nc2ccc(C(F)(F)F)cc2)n1)N1CCCC1 [Compound 45, 1-pyrrolidin-1-yl-2-[5-[2-[4-(trifluoromethyl)anilino]phenyl]tetrazol-2-yl]ethanone] | 0.1 to 1
OC1(Cn2nnc(-c3ccccc3Nc3ccc(C(F)(F)F)cc3)n2)CCCC1 [Compound 152, 1-((5-(2-((4-(Trifluoromethyl)phenyl)amino)phenyl)-2H-tetrazol-2-yl)methyl)cyclopentanol] | < 0.1
O=C1NC(Cn2nnc(-c3ccccc3Nc3ccc(C(F)(F)F)cc3)n2)CO1 (stereo not drawn) [Compound 180, 4-((5-(2-((4-(trifluoromethyl)phenyl)amino)phenyl)-2H-tetrazol-2-yl)methyl)oxazolidin-2-one] | 0.1 to 1
CS(=O)(=O)NCCn1nnc(-c2ccccc2Nc2ccc(C(F)(F)F)cc2)n1 [Compound 93, N-[2-[5-[2-[4-(trifluoromethyl)anilino]phenyl]tetrazol-2-yl]ethyl]methane Sulfonamide] | 1 to 5
OCCCn1nnc(-c2ccccc2Nc2cccc(C(F)(F)F)c2)n1 [Compound 13, 3-[5-[2-[3-(trifluoromethyl)anilino]phenyl]tetrazol-2-yl]propan-1-ol] | 0.1 to 1
NCCn1nnc(-c2ccccc2Nc2ccc(C(F)(F)F)cc2)n1 [Compound 228, 2-(2-(2-aminoethyl)-2H-tetrazol-5-yl)-N-(4-(trifluoromethyl)phenyl)aniline] | 0.1 to 1
FC(F)(F)Oc1ccc(Nc2ccccc2-c2nnn(Cc3ccccn3)n2)cc1 [Compound 54, 2-(2-(pyridin-2-ylmethyl)-2H-tetrazol-5-yl)-N-(4-(trifluoromethoxy)phenyl)aniline] | 1 to 5
OCCn1nnc(-c2ccccc2Nc2ccc(C(F)(F)F)c(Cl)c2)n1 [Compound 246, 2-(5-(2-((3-chloro-4-(trifluoromethyl)phenyl)amino)phenyl)-2H-tetrazol-2-yl)ethanol] | < 0.1
OCCn1cc(-c2ccccc2Nc2ccc(C(F)(F)F)cc2)nn1 [Compound 191, 2-(4-(2-((4-(trifluoromethyl)phenyl)amino)phenyl)-1H-1,2,3-triazol-1-yl)ethan-1-ol] | < 0.1
CCN(CC)C(=O)Cn1nnc(-c2ccccc2Nc2ccc(C(F)(F)F)cc2)n1 [Compound 44, N,N-diethyl-2-[5-[2-[4-(trifluoromethyl)anilino]phenyl]tetrazol-2-yl]acetamide] | 1 to 5
FC(F)(F)c1ccc(Nc2ccccc2-c2nnn(Cc3ccncc3)n2)cc1 [Compound 41, 2-[2-(4-pyridylmethyl)tetrazol-5-yl]-N-[4-(trifluoromethyl)phenyl]aniline] | 0.1 to 1
CO[C@H](C)[C@@H](C)n1nnc(-c2ccccc2Nc2ccc(C(F)(F)F)cc2)n1 [Compound 213, 2-(2-((2R,3R)-3-methoxybutan-2-yl)-2H-tetrazol-5-yl)-N-(4-(trifluoromethyl)phenyl)aniline] | 0.1 to 1

Source: patent US11186554B2, “Non-fused tricyclic compounds” (VIVACE THERAPEUTICS, INC., priority 2017, dated 2021)
